In patent publication US20160287646A1, “MACROALGAE COMPOSITIONS, PROCESSES FOR PREPARATION THEREOF, AND USES IN SPORTS NUTRITION” (OmniActive Health Technologies (Canada) Limited, priority 2015, published 2016):

Assays:
C2C12 cells [1] = assay: Mitochondrial mass (NAO probe fluorescence) in differentiated C2C12 cells; assay type: cell-based, mouse; conditions: fluorescent intensity relative to untreated control
Description: (§1) Mouse skeletal myoblasts C2C12 cells were used as a cell model to assess mitochondrial function and IGF-1 expression. Cells were cultured as undifferentiated myoblasts in high-serum growth media DMEM (Dulbecco's Modified Eagle Medium), supplemented with 10% FBS (Fetal bovine serum) and 1% penicillin/streptomycin. Cells were grown to full confluency at 37° C. in a humidified incubator with 5% CO2.
The effect of treatment with macroalgae composition on mitochondrial mass was assessed by measuring changes in fluorescent intensity in differentiated C2C12 cells. The nonylacridine orange (NAO) probe binds to cardiolipin in all mitochondria, regardless of their energetic state, providing a measure of mitochondrial mass and an indication of mitochondrial biogenesis. C2C12 cells were seeded in 96-well culture plates at a density of 2×10^4 cells/mL, induced to differentiate, and pre-treated with or without select macroalgae composition and controls. […] Probe fluorescence was measured (excitation 380 nm, emission 645 nm) using a fluorescence plate reader. Fluorescent intensity relative to untreated control was then calculated. To standardize probe fluorescence to protein content of the cells, total protein content (in μg) was assessed by bicinchoninic acid (BCA) using bovine serum albumin as standard.

C2C12 cells [2] = assay: Mitochondrial oxygen consumption (MitoXpress probe) in differentiated C2C12 cells; assay type: cell-based, mouse; conditions: macroalgae composition 100 ug/ml
Description: as §1
Extracellular oxygen consumption in differentiated C2C12 cells was measured by assessing phosphorescence of a porphyrin-based, water soluble, oxygen sensitive probe (MitoXpress®-Xtra-HS, Luxcel Biosciences). Probe fluorescence is quenched by molecular oxygen (O2), resulting in lower probe signal. As cellular respiration reduces the concentration of O2, probe signal increases. The rate of this increase is related to the rate of cellular oxygen consumption. C2C12 cells were seeded in 96-well culture plates at a density of 2×10^4 cells/mL, induced to differentiate, and incubated with MitoXpress probe ([…] the presence or absence of macroalgae composition (100 ug/ml). High sensitivity mineral oil was added (100 μL/well) to increase assay sensitivity by minimizing interference from ambient O2. Probe fluorescence was measured (excitation 380 nm, emission 645 nm) using a fluorescence plate reader.

[3] = tested on: insulin-like growth factor-1 (IGF-1); assay: IGF-1 ELISA in differentiated C2C12 cells; assay type: cell-based, mouse; conditions: cell culture supernatants
Description: as §1
To evaluate the effect of treatment with macroalgae composition on insulin-like growth factor-1 (IGF-1) concentrations in differentiated C2C12 cells, the mouse IGF-1 enzyme-linked immunosorbent assay (ELISA) kit (Sigma) was utilized. The kit provides a quantitative measurement of mouse IGF-1 in cell culture supernatants by employing an antibody specific coated 96-well plate. Standards and samples were added to the coated plate and any IGF-1 present in the sample bound to the immobilized antibody. After washing away any unbound antibody, HRP-conjugated streptavidin was added to the wells. The wells were washed again, followed by addition of a colorimetric TMB reagent. Color developed in proportion to the amount of bound IGF-1. Addition of a stop solution changed the color from blue to yellow, and the color intensity was read at A450 with a microplate reader. Blank-corrected unknown sample protein concentrations were then extrapolated from a known standard curve.

H295R cells = assay: Cortisol production immunoassay in H295R cells; assay type: cell-based, human; conditions: 24 h incubation
Description: It is a human adrenal cell line that presents a steroid secretion pattern and regulation similar to primary cultures of adrenal cells.
Cells were then incubated in the presence or absence of macroalgae composition for 24 h before assessing cortisol production.
To evaluate the effect of treatment with macroalgae composition on cortisol concentrations in H295R cells, the DetectX® (Arbor Assays) immunoassay was utilized. A cortisol standard was provided to generate a standard curve for the assay and all samples were read off the standard curve. Standards or samples were pipetted into a clear microtiter plate coated with an antibody. A cortisol-peroxidase conjugate was added to the standards and samples in the wells. The binding reaction was initiated by the addition of a monoclonal antibody to cortisol to each well. After 1 hour incubation, the plate was washed and substrate was added. The substrate reacted with the bound cortisol-peroxidase conjugate. After a short incubation, the reaction was stopped and the intensity of the generated color was detected in a microtiter plate reader capable of measuring 450 nm wavelength. The concentration of cortisol in the samples was then calculated.

C2C12 cells [4] = assay: ATP production colorimetric assay in C2C12 myotubes; assay type: cell-based, mouse; conditions: extracts 100 ug/mL, caffeine 500 uM, creatine 1 uM, control 99.99
Description: C2C12 cells (ATCC® CRL-1772) were seeded in 24- or 96-well culture plates as undifferentiated myoblasts and grown to 100% confluency in ATCC-formulated Dulbecco's Modified Eagle's Medium (DMEM) supplemented with 10% heat-inactivated fetal bovine serum (FBS). […] Differentiation medium consisted of ATCC-formulated DMEM supplemented with 2% heat-inactivated horse serum and was changed daily during the differentiation process. Cell culture conditions were maintained at 37° C. in a humidified atmosphere of 5% CO2/95% air. After 5 days of differentiation, cells were incubated in the presence or absence of macroalgae composition (with control). […] The effect of select macroalgae compositions were assessed using the following assays:
To evaluate the effect of macroalgae composition on ATP levels, colorimetric assay kit (Sigma-Aldrich, St. Louis, Mo.) was used, which is an enzyme-linked approach that involves the conversion of ATP in the test sample to ADP via the action of glycerol kinase which catalyses the transfer of the phosphate group to glycerol. The reaction was monitored by use of colorimetric product whose concentration varies proportional to the amount of ATP present. […] After 30 minutes, the absorbance at 570 nm will be measured using a microplate reader, and ATP concentrations will be extrapolated from a standard curve.

PGC-1α = assay: PGC-1alpha ELISA in differentiated C2C12 cells; assay type: cell-based, mouse; conditions: overnight treatment, extracts 100 ug/mL, caffeine 500 uM, resveratrol 100 uM, control 100.01
Description: C2C12 cells (ATCC® CRL-1772) were seeded in 24- or 96-well culture plates as undifferentiated myoblasts and grown to 100% confluency in ATCC-formulated Dulbecco's Modified Eagle's Medium (DMEM) supplemented with 10% heat-inactivated fetal bovine serum (FBS). […] Differentiation medium consisted of ATCC-formulated DMEM supplemented with 2% heat-inactivated horse serum and was changed daily during the differentiation process. Cell culture conditions were maintained at 37° C. in a humidified atmosphere of 5% CO2/95% air. After 5 days of differentiation, cells were incubated in the presence or absence of macroalgae composition (with control). Cells were treated with macroalgae compositions and also control samples to check effect on said biomarkers. The compositions and control samples used are mentioned in the respective table, showing results of the test. The effect of select macroalgae compositions were assessed using the following assays: Concentrations of PGC-1α in differentiated C2C12 cells as a result of treatment with macroalgae composition were determined by ELISA (MyBiosource). Following overnight treatment, cell lysates were collected and centrifuged to remove cellular debris. […] The amount of PGC-1α captured by the anti-PGC-1α antibody was determined using a biotinylated-IgG antibody/HRP-streptavidin detection system.

C2C12 cells [5] = assay: Glucose uptake bioluminescent assay (2DG6P) in C2C12 cells; assay type: cell-based, mouse; conditions: for Glucose Uptake - glucose + insulin: 25 mM glucose + 1 uM insulin, compared to non-treated samples (glucose only 100.0)
Description: (§2) C2C12 cells (ATCC® CRL-1772) were seeded in 24- or 96-well culture plates as undifferentiated myoblasts and grown to 100% confluency in ATCC-formulated Dulbecco's Modified Eagle's Medium (DMEM) supplemented with 10% heat-inactivated fetal bovine serum (FBS). […] Differentiation medium consisted of ATCC-formulated DMEM supplemented with 2% heat-inactivated horse serum and was changed daily during the differentiation process. Cell culture conditions were maintained at 37° C. in a humidified atmosphere of 5% CO2/95% air. After 5 days of differentiation, cells were incubated in the presence or absence of macroalgae composition (with control). Cells were treated with macroalgae compositions and also control samples to check effect on said biomarkers. The compositions and control samples used are mentioned in the respective table, showing results of the test. The effect of select macroalgae compositions were assessed using the following assays:
(§3) Glucose uptake in C2C12 cells was determined by bioluminescent assay (Promega), based on the detection of 2-deoxyglucose-6-phosphate (2DG6P). When […] to cells, it is transported across the membrane and rapidly phosphorylated. However, further modification is not possible, resulting in accumulation within the cell. Addition of a 2DG6P detection reagent, leading to the generation of NADPH from 2DG6P, luciferin from NADPH, and light from luciferin, allows for detection of a bioluminescent signal. Overall, the luminescent signal is proportional to the concentration of 2DG6P, and thus the rate of glucose uptake. Glycogen synthesis was determined in cell culture lysates from differentiated C2C12 cells using a colorimetric assay kit from BioVision Inc. This involves the addition of glucoamylase to the samples that hydrolyzes glycogen to glucose; the glucose is then oxidized to form an intermediate that reduces OxiRed, forming a colored product with strong absorbance at 570 nm.

C2C12 cells [6] = assay: Glycogen synthesis colorimetric assay in differentiated C2C12 cells; assay type: cell-based, mouse; conditions: for Glycogen Content - glucose + insulin: 30 mM glucose + 100 nM insulin, compared to non-treated samples (glucose only 100.0); for Glycogen Content - glucose only: 30 mM glucose, compared to non-treated samples (100.0)
Description: as §2, §3

Akt = assay: BioPlex cell signaling assay, relative phosphorylation of Akt (PKB) in C2C12 cells; assay type: cell-based, mouse; conditions: differentiated C2C12 cells pre-treated 2 hours; ratio of fluorescence of phospho-protein to total protein
Description: (§4) The effects of macroalgae composition on biomarkers of sport nutrition based on protein synthesis platform were evaluated, wherein the compositions were tested with an initial MTT assay (MIT is a name of dye 3-(4,5-dimethylthiazol-2-yl)-2,5-diphenyltetrazolium bromide) to determine cytotoxicity and establish dose range for testing.
(§5) Test inputs chosen for the protein synthesis assay platform were assessed using BioPlex (BioRad) cell signaling assays, based on the principle of the sandwich ELISA. Capture antibodies directed against the desired biomarker were covalently coupled to magnetic beads, which reacted with the sample containing the biomarker of interest. After a series of wash steps to remove any unbound protein, a biotinylated detection antibody was added to create a “sandwich” complex. The final detection complex was formed with the addition of a streptavidin-phycoerythrin (SA-PE) conjugate, which serves as a fluorescent indicator. […] The beads were then re-suspended in assay buffer and read on the BioPlex MAGPIX system. […]
(§6) Phospho-PKB/PKB, Phospho-mTOR/mTOR, Phospho-p70S6k/p70S6k, their effects were more pronounced than creatine or whey protein. In Table 3 below, Phospho-PKB/PKB, Phospho-mTOR/mTOR, and Phospho-p70S6k/p70S6k are expressed as a ratio of the fluorescence of the phospho-protein divided by the fluorescence of the total protein.

[7] = tested on: mTOR (the mammalian target of rapamycin); assay: BioPlex cell signaling assay, relative phosphorylation of mTOR in C2C12 cells; assay type: cell-based, mouse; conditions: differentiated C2C12 cells pre-treated 2 hours; ratio of fluorescence of phospho-protein to total protein
Description: as §4, §5, §6

p70S6k = assay: BioPlex cell signaling assay, relative phosphorylation of p70S6k in C2C12 cells; assay type: cell-based, mouse; conditions: differentiated C2C12 cells pre-treated 2 hours; ratio of fluorescence of phospho-protein to total protein
Description: as §4, §5, §6

Compound | Mitochondrial Mass (C2C12 cells [1]) | Mitochondrial Oxygen consumption (C2C12 cells [2]) | IGF-1 [3] | Cortisol (H295R cells) | ATP production, Relative to Control (C2C12 cells [4]) | PGC1-alpha production, Relative to Control (PGC-1α) | Glucose Uptake - glucose + insulin (C2C12 cells [5]) [%] | Glycogen Content - glucose + insulin (C2C12 cells [6]) [%] | Glycogen Content - glucose only (C2C12 cells [6]) [%] | Phospho-PKB/PKB (Akt) | Phospho-mTOR/mTOR [7] | Phospho-p70S6k/p70S6k (p70S6k) | Glucose (G) Uptake - glucose only (C2C12 cells [5]; 25 mM glucose, compared to non-treated samples (100.0)) [%]
Cn1c(=O)c2c(ncn2C)n(C)c1=O [Caffeine] | 146 | 157 | 130 | 65 | 225.83 | 192.96 | 198.7 | 164.7 | 115.3 |  |  |  | 
Insulin: control in protein synthesis assay; co-stimulus in glucose uptake and glycogen assays |  |  |  |  |  |  | 189.5 | 153.6 |  | 315 | 311 | 241 | 
Oc1ccc(C=Cc2cc(O)cc(O)c2)cc1 [Resveratrol] |  |  |  |  |  | 220.96 | 291.0 | 223.9 | 142.9 |  |  |  | 132.4
CN(CC(=O)O)C(=N)N [Creatine] |  |  |  |  | 233.17 |  |  |  |  | 191 | 192 | 162 | 
CC(C)C[C@H](N)C(=O)O [Leucine] | 157 | 144 | 127 | 65.3 |  |  | 203.7 | 158.2 | 111.1 |  |  |  | 
